Results: patent US9834558B2, “Substituted bridged urea analogs as sirtuin modulators” (GLAXOSMITHKLINE LLC, priority 2013, dated 2017)
Read-outs that look alike come from different tables or passages of the source.

Target: T1, SIRT1 (Homo sapiens, UniProt Q96EB6)
T1 sequence (Q96EB6 1-747): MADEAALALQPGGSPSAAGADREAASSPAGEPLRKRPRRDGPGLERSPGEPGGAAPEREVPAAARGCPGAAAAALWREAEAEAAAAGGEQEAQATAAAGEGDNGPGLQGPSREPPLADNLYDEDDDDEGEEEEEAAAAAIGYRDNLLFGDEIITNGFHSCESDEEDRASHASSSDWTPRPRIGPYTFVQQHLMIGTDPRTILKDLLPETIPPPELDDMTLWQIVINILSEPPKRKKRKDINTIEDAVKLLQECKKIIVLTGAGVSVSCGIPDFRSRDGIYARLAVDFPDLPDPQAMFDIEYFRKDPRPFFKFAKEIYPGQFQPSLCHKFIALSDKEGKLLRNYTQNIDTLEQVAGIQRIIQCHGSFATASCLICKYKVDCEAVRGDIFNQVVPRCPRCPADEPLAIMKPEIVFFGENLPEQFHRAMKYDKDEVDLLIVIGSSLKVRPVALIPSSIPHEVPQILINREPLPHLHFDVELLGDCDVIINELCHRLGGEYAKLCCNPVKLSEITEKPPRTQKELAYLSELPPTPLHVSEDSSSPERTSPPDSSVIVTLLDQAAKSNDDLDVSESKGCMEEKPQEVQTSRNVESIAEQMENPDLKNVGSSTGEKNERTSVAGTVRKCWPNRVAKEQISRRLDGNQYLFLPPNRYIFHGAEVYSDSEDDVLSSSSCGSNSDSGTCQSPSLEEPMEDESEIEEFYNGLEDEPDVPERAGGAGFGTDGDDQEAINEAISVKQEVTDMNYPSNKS
Assay: Trp mass spectrometry assay of SIRT1 activation
Type: biochemical
Conditions: for TRP Activity (EC1.5): EC1.5 = concentration that results in 150% activation of SIRT1
Text: Mass spectrometry based assays were used to identify modulators of SIRT1 activity. […] The peptide was labeled with the fluorophore STMR (excitation 540 nm/emission 580 nm) at the C-terminus. The sequence of the peptide substrate was based on p53 with several modifications. In addition, the methionine residue naturally present in the sequence was replaced with the norleucine because the methionine may be susceptible to oxidation during synthesis and purification. The Trp based assay utilized a peptide having an amino acid residues as follows: Ac-R-H-K-K(Ac)-W-NH2 (SEQ ID NO: 2).
The Trp mass spectrometry assay was conducted as follows. 0.5 μM peptide substrate and 120 μM βNAD^+ were incubated with 10 nM SIRT1 for 25 minutes at 25° C. in a reaction buffer (50 mM HEPES pH 7.5, […], 1 mM DTT, 0.05% BSA). The SIRT1 protein was obtained by cloning the SirT1 gene into a T7-promoter containing vector, which was then expressed in BL21(DE3) bacterial cells and purified as described in further detail below. Test compound was added at varying concentrations to this reaction mixture and the resulting reactions were monitored. After the 25 minute incubation with SIRT1, 10 μL of 10% formic acid was added to stop the reaction. The resulting reactions were sealed and frozen for later mass spec analysis. The relative SIRT1 activity was then determined by measuring the amount of O-acetyl-ADP-ribose (OAADPR) formed (or, alternatively, the amount of deacetylated Trp peptide generated) by the NAD-dependent sirtuin deacetylation reaction in the presence of varying concentrations of the test compound versus control reactions lacking the test compound. The degree to which the test agent activated deacetylation by SIRT1 was expressed as EC1.5 (i.e., the concentration of compound required to increase SIRT1 activity by 50% over the control lacking test compound), and Percent Maximum Activation (i.e., the maximum activity relative to control (100%) obtained for the test compound).
This time point was the same as that used for test compounds and, within the linear range, the endpoint represents a change in velocity.
For the above assay, SIRT1 protein was expressed and purified as follows. The SirT1 gene was cloned into a T7-promoter containing vector and transformed into BL21(DE3). The protein was expressed by induction with 1 mM IPTG as an N-terminal His-tag fusion protein at 18° C. overnight and harvested at 30,000×g. Cells were lysed with lysozyme in lysis buffer (50 mM Tris-HCl, 2 mM Tris[2-carboxyethyl]phosphine (TCEP), 10 μM ZnCl2, 200 mM NaCl) and further treated with sonication for 10 min for complete lysis. The protein was purified over a Ni-NTA column (Amersham) and fractions containing pure protein were pooled, concentrated and run over a sizing column (Sephadex S200 26/60 global). The peak containing soluble protein was collected and run on an Ion-exchange column (MonoQ). Gradient elution (200 mM-500 mM NaCl) yielded pure protein. This protein was concentrated and dialyzed against dialysis buffer (20 mM Tris-HCl, 2 mM TCEP) overnight. The protein was aliquoted and frozen at −80° C. until further use.
“NT” means not tested; “ND” means not determinable.

[1] = Trp mass spectrometry assay, EC1.5 = concentration of test compound that results in 150% activation of SIRT1
[2] = Trp peptide assay, maximum activity relative to control (100%), read-out: TRP MAX RESP (percent maximum fold activation)
[3] = Trp mass spectrometry assay, concentration of test compound giving 150% activation of SIRT1
[4] = concentration giving 150% activation of SIRT1, Trp peptide substrate

| TRP Activity (EC1.5) (Trp peptide assay) | Emax [2] [%] | SMILES | further results |
| --- | --- | --- | --- |
| – | – | Cc1cc(-c2ccc3c(n2)N(C(=O)Nc2ccc4nn(C)cc4c2)[C@H]2CCN3C2)ccn1 [Example 483] | Tryp AVG EC1.5 (μM) [1]: A (A (EC1.5<1 μM)); Emax (Trp mass spectrometry assay, percent maximum fold activation of SIRT1, read-out: Tryp % Fold Act): > 150% |
| B (B (EC1.5 1-25 μM)) | > 150 | O=C(Nc1cnccn1)N1c2nc(-c3ccc(C(F)(F)F)nc3)ccc2N2CC[C@H]1C2 [(9S)-N-(pyrazin-2-yl)-5-[6-(trifluoromethyl)pyridin-3-yl]-1,6,8-triazatricyclo[7.2.1.0 {2,7}]dodeca-2(7),3,5-triene-8-carboxamide] | – |
| – | – | COc1cc(NC(=O)N2c3nc(-c4cccc(C(F)(F)F)n4)ccc3N3CC[C@H]2C3)ncn1 [Example 339] | Tryp AVG EC1.5 (μM) [3]: B (B (EC1.5 1-25 μM)) |
| – | – | O=C(Nc1ccncn1)N1c2nc(-c3cncc(C(F)(F)F)c3)ccc2N2C[C@@H](O)[C@H]1C2 [Example 700] | Tryp AVG EC1.5 (μM) [4]: B (B (EC1.5 1-25 μM)) |
| – | – | O=C(Nc1ccc(F)cn1)N1c2nc(N3CCCC(C(F)(F)F)C3)ccc2N2CCC[C@@H]1C2 (stereo partly drawn) [Example 362] | Tryp AVG EC1.5 (μM) [3]: C (C (EC1.5>25 μM)) |
| B (B (EC1.5 1-25 μM)) | > 150 | Cc1cc(-c2ccc3c(n2)N(C(=O)Nc2c[nH]nn2)[C@H]2CCN3C2)ccn1 [(9S)-5-(2-methylpyridin-4-yl)-N-(1H-1,2,3-triazol-4-yl)-1,6,8-triazatricyclo[7.2.1.0 {2,7}]dodeca-2(7),3,5-triene-8-carboxamide] | – |
| – | – | N#Cc1cccc(-c2ccc3c(n2)N(C(=O)Nc2ccncn2)[C@H]2CCCN3C2)c1 [Example 352] | Tryp AVG EC1.5 (μM) [3]: A (A (EC1.5<1 μM)) |
| B (B (EC1.5 1-25 μM)) | > 150 | O=C(Nc1cccnc1)N1c2nc(-c3ccc(C(F)(F)F)nc3)ccc2N2CC[C@H]1C2 [(9S)-N-(pyridin-3-yl)-5-[6-(trifluoromethyl)pyridin-3-yl]-1,6,8-triazatricyclo[7.2.1.0^{2,7}]dodeca-2(7),3,5-triene-8-carboxamide] | – |
| B (B (EC1.5 1-25 μM)) | > 150 | O=C(Nc1ccccc1CCC(F)(F)F)N1c2nc(Cl)ccc2N2CC[C@H]1C2 [(9S)-5-chloro-N-[2-(3,3,3-trifluoropropyl)phenyl]-1,6,8-triazatricyclo[7.2.1.0 {2,7}]dodeca-2(7),3,5-triene-8-carboxamide] | – |
| – | – | O=C(Nc1cnccn1)N1c2nc(-c3cccc(C(F)(F)F)c3)ccc2N2C[C@@H](O)[C@H]1C2 [Example 645] | Tryp AVG EC1.5 (μM) [4]: A (A (EC1.5<1 μM)) |
| – | – | O=C(Nc1ccncc1)N1c2nc(-c3cccc(C(F)(F)F)c3)ccc2N2CC(O)C1C2 (stereo not drawn) [Compound 114] | Emax (Trp peptide substrate, percent maximum fold activation of SIRT1, read-out: Tryp % Fold Act): > 150% |
| – | – | O=C(Nc1ccncn1)N1c2nc(-c3cccc(Cl)c3)ccc2N2CCC1CC2 [Example 534] | Tryp AVG EC1.5 (μM) [1]: B (B (EC1.5 1-25 μM)) |
| – | – | CC(C)(C)OC(=O)NCCCc1cc(NC(=O)N2c3nc(-c4cccc(C(F)(F)F)c4)ccc3N3CC[C@H]2C3)cc(-c2cnco2)c1 [Example 759] | Tryp AVG EC1.5 (μM) [4]: B (B (EC1.5 1-25 μM)) |
| B (B (EC1.5 1-25 μM)) | > 150 | CN(C)c1cc(-c2ccc3c(n2)N(C(=O)Nc2cnccn2)[C@H]2CCN3C2)ccn1 [(9S)-5-[2-(dimethylamino)pyridin-4-yl]-N-(pyrazin-2-yl)-1,6,8-triazatricyclo[7.2.1.0 {2,7}]dodeca-2(7),3,5-triene-8-carboxamide] | – |
| B (B (EC1.5 1-25 μM)) | > 150 | COCC(C)NC(=O)c1ccc2c(n1)N(C(=O)Nc1ccccn1)[C@H]1CCN2C1 (stereo partly drawn) [(9S)-5-N-(1-methoxypropan-2-yl)-8-N-(pyridin-2-yl)-1,6,8-triazatricyclo[7.2.1.0^{2,7}]dodeca-2(7),3,5-triene-5,8-dicarboxamide] | – |
| B (B (EC1.5 1-25 μM)) | > 150 | C[C@@H]1CN(c2ccc3c(n2)N(C(=O)Nc2cnccn2)[C@H]2CCN3C2)CCO1 [(9S)-5-[(2R)-2-methylmorpholin-4-yl]-N-(pyrazin-2-yl)-1,6,8-triazatricyclo[7.2.1.0 {2,7}]dodeca-2,4,6-triene-8-carboxamide] | – |
| – | – | O=C(Nc1cccc(C(F)(F)F)c1)N1c2nc(-c3cccc(C(F)(F)F)c3)ccc2N2CC[C@H]1C2 [Example 617] | Tryp AVG EC1.5 (μM) [1]: A (A (EC1.5<1 μM)) |
| A (A (EC1.5<1 μM)) | > 150 | Cc1cc(-c2ccc3c(n2)N(C(=O)Nc2cncc(OC(C)C)n2)[C@H]2CCN3C2)ccn1 [(9S)-5-(2-methylpyridin-4-yl)-N-[6-(propan-2-yloxy)pyrazin-2-yl]-1,6,8-triazatricyclo[7.2.1.0 {2,7}]dodeca-2(7),3,5-triene-8-carboxamide] | – |
| – | – | NCCCc1cc(NC(=O)N2c3nc(-c4cccc(C(F)(F)F)c4)ccc3N3CCC[C@H]2C3)cc(-c2cnco2)c1 [Example 770] | Tryp AVG EC1.5 (μM) [4]: A (A (EC1.5<1 μM)); Emax (percent maximum fold activation of SIRT1, Trp peptide substrate, read-out: Tryp % Fold Act): > 150% |
| A (A (EC1.5<1 μM)) | > 150 | O=C(NCC(F)(F)F)c1ccc2c(n1)N(C(=O)Nc1ccccn1)[C@H]1CCN2C1 [(9S)-8-N-(pyridin-2-yl)-5-N-(2,2,2-trifluoroethyl)-1,6,8-triazatricyclo[7.2.1.0 {2,7}]dodeca-2(7),3,5-triene-5,8-dicarboxamide] | – |
| – | – | Cn1cc(-c2ccc3c(n2)N(C(=O)Nc2cccnc2)[C@H]2CCN3C2)cn1 [Example 395] | Tryp AVG EC1.5 (μM) [3]: B (B (EC1.5 1-25 μM)) |
| – | – | O=C(Nc1cccc(CN2CCNCC2)c1)N1c2nc(-c3cccc(C(F)(F)F)c3)ccc2N2CC[C@H]1C2 [Example 731] | Tryp AVG EC1.5 (μM) [4]: A (A (EC1.5<1 μM)) |
| – | – | Cc1nc(NC(=O)N2c3nc(-c4cncc(C(F)(F)F)c4)ccc3N3C[C@@H](O)[C@H]2C3)sc1C [Example 697] | Tryp AVG EC1.5 (μM) [4]: B (B (EC1.5 1-25 μM)) |
| – | – | Cc1noc(C)c1-c1cccc(NC(=O)N2c3nc(-c4cccc(C(F)(F)F)c4)ccc3N3CC[C@H]2C3)n1 [Example 657] | Tryp AVG EC1.5 (μM) [4]: A (A (EC1.5<1 μM)) |
| – | – | Cc1nc(NC(=O)N2c3nc(-c4cccc(Cl)c4)ccc3N3CC[C@H]2C3)sc1C [Example 102] | Tryp AVG EC1.5 (μM) (Trp peptide substrate, concentration giving 150% activation of SIRT1): A (A (EC1.5<1 μM)) |
| B (B (EC1.5 1-25 μM)) | > 150 | COC(=O)c1cc(-c2ccc3c(n2)N(C(=O)Nc2cnccn2)[C@H]2CCN3C2)ccn1 [methyl 4-[(9S)-8-[(pyrazin-2-yl)carbamoyl]-1,6,8-triazatricyclo[7.2.1.0 {2,7}]dodeca-2(7),3,5-trien-5-yl]pyridine-2-carboxylate] | – |
| – | – | O=C(Nc1ccncc1F)N1c2nc(-c3cccc(Cl)c3)ccc2N2CCC[C@H]1C2 [Example 421] | Tryp AVG EC1.5 (μM) [1]: A (A (EC1.5<1 μM)) |
